Here are results for 24 molecules from patent US20100286215A1, “BIS-AROMATIC COMPOUNDS USEFUL IN THE TREATMENT OF INFLAMMATION” (BIS-AROMATIC COMPOUNDS USEFUL IN THE TREATMENT OF …, priority 2007, published 2010).

The first experiment deals with T1, Recombinant human LTC4 synthase (Homo sapiens, UniProt Q16873).
T1 construct: made in house; host or cells: Pichia pastoris ('Piccia pastoralis' [sic])
T1 sequence (Q16873 1-150): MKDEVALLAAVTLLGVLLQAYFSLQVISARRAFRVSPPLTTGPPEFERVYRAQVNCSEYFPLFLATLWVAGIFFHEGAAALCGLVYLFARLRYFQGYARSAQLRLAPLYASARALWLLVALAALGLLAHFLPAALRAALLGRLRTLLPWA
Kind of experiment: LTC4 synthase assay (conversion of LTA4 methyl ester to LTC4 methyl ester, HPLC). It is filed as biochemical.
Conditions: not given
The method, then:
In the assay LTC4 synthase catalyses the reaction where the substrate LTA4 methyl ester is converted to LTC4 methyl ester. Recombinant human LTC4 synthase is expressed in Piccia pastoralis and the purified enzyme is dissolved in 25 mM Tris-buffer pH 7.8 and stored at −20° C. The assay is performed in phosphate buffered saline (PBS) pH 7.4, supplemented with 5 mM glutathione (GSH). The reaction is terminated by addition of acetonitrile/MeOH/acetic acid (50/50/1). The assay is performed at rt in 96-well plates. Analysis of the formed LTC4 methyl ester is performed with reversed phase HPLC (Waters 2795 utilizing an Onyx Monolithic C18 column). The mobile phase consists of acetonitrile/MeOH/H2O (32.5/30/37.5) with 1% acetic acid pH adjusted with NH3 to pH 5.6, and absorbance measured at 280 nm with a Waters 2487 UV-detector.
The following is added chronologically to each well: • 1. 50 μl assay buffer, PBS with 5 mM GSH. • 2. 0.5 μl inhibitor in DMSO. • 3. 2 μl LTC4 synthase in PBS. The total protein concentration in this solution is 0.025 mg/ml. Incubation of the plate at room temperature for 10 minutes. • 4. 0.5 μl LTA4 methyl ester. Incubation of the plate at rt for 1 min. • 5. 50 μl stop solution. 80 μl of the incubation mixture is analysed with HPLC.
What is called IC50 is the concentration needed to halve the response being measured. `O=C(c1ccc(NS(=O)(=O)c2ccc([N+](=O)[O-])cc2)c(C(=O)O)c1)c1ccc(NS(=O)(=O)c2ccc([N+](=O)[O-])cc2)c(C(=O)O)c1` [Example 4, 2-((4-nitrophenyl)sulfonylamino)-5-(3-carboxy-4-(((4-nitrophenyl)-sulfonyl)amino)benzoyl)benzoic acid]: the concentration for half-maximal inhibition (IC50) is 191 nM.

The experiment is the same for the next values; noted with them: inhibitor concentration 0.3 μM; read-out: Percantage Inhibition (at a concentration of 0.3 μM).
Turning to `CCCCc1ccc(C(=O)Nc2ccc(C(=O)c3ccc(NC(=O)c4ccc(C(F)(F)F)cc4)c(C(=O)O)c3)cc2C(=O)O)cc1` [Example 9, 2-(4-butylbenzamido)-5-(4-(4-(trifluoromethyl)benzamido)-3-carboxyphenylcarbonyl)-benzoic acid], the inhibition at 0.3 µM came out at 92%.

Staying with this experiment, now noted: inhibitor concentration 10 μM; read-out: Percantage Inhibition at 10 μM (unless specified otherwise).
On to `O=C(Nc1ccc(C(=O)c2ccc(NC(=O)c3cccc4c3OC(F)(F)O4)c(C(=O)O)c2)cc1)c1cccc(Cl)c1` [7:6, 5-[4-(3-Chloro-benzoylamino)-benzoyl]-2-[(2,2-difluoro-benzo[1,3]dioxole-4-carbonyl)-amino]-benzoic acid], for which the inhibition at 10 µM was 100%. Same read-out and setting: in the case of `O=C(Nc1ccc(C(=O)c2ccc(Nc3ccc(F)c(F)c3)c(C(=O)O)c2)cc1)c1cccc(Cl)c1` [5:11, 5-[4-(3-Chloro-benzoylamino)-benzoyl]-2-(3,4-difluoro-phenylamino)-benzoic acid] it was 87%; in that of `O=C(c1ccc(NS(=O)(=O)c2ccc([N+](=O)[O-])cc2)c(C(=O)O)c1)c1ccc(NS(=O)(=O)c2ccc([N+](=O)[O-])cc2)c(C(=O)O)c1` [Example 4, 2-((4-nitrophenyl)sulfonylamino)-5-(3-carboxy-4-(((4-nitrophenyl)-sulfonyl)amino)benzoyl)benzoic acid], 100%. On the same count and under the same terms, the same measure for `O=C(c1ccc(Nc2ccc(F)c(F)c2)cc1)c1ccc(Oc2ccc(F)c(F)c2)c(C(=O)O)c1` [8:1, 2-(3,4-Difluoro-phenoxy)-5-[4-(3,4-difluoro-phenylamino)-benzoyl]-benzoic acid]: 97%; for `CN(c1ccc(Cl)cc1)c1ccc(C(=O)c2ccc(Nc3ccccc3C(F)(F)F)c(C(=O)O)c2)cc1` [9:2, 5-{4-[(4-Chloro-phenyl)-methyl-amino]-benzoyl}-2-(2-trifluoromethyl-phenylamino)-benzoic acid]: 55%; for `CCCCOc1ccc(S(=O)(=O)Nc2ccc(C(=O)c3ccc(Nc4ccc(F)c(F)c4)c(C(=O)O)c3)cc2)cc1` [Example 14, 5-(4-(4-butoxyphenylsulfonamido)benzoyl)-2-(3,4-difluorophenylamino)benzoic acid]: 100%. With `O=C(CC1CCCC1)Nc1ccc(C(=O)c2ccc(NC(=O)c3ccc(Cl)cc3Cl)c(C(=O)O)c2)cc1` [14:1, 5-[4-(2-Cyclopentyl-acetylamino)-benzoyl]-2-(2,4-dichloro-benzoylamino)-benzoic acid], the inhibition at 10 µM came to 93%. Still for that read-out and setting: the same measure for `CN(c1ccc(Cl)cc1)c1ccc(C(=O)c2ccc(Oc3ccc(Cl)cc3)c(C(=O)O)c2)cc1` [6:1, 2-(4-Chloro-phenoxy)-5-{4-[(4-chloro-phenyl)-methyl-amino]-benzoyl}-benzoic acid]: 62%. On the same count and under the same terms, the same measure for `O=C(c1ccc(NC(=O)c2ccc(Cl)cc2Cl)c(C(=O)O)c1)c1ccc(NC(=O)c2ccc(Cl)cc2Cl)c(C(=O)O)c1` [Example 10, 2-(2,4-dichlorobenzamido)-5-(4-(2,4-dichlorobenzamido)-3-carboxyphenylcarbonyl)-benzoic acid]: 82%; for `O=C(Nc1ccc(C(=O)c2ccc(NS(=O)(=O)c3ccc(Cl)cc3)cc2)cc1C(=O)O)c1cccc(Cl)c1` [7:11, 5-[4-(4-Chloro-benzenesulfonylamino)-benzoyl]-2-(3-chloro-benzoylamino)-benzoic acid]: 98%. Same read-out and setting: the same measure for `O=C(c1ccc(NS(=O)(=O)c2ccc(Cl)c(Cl)c2)c(C(=O)O)c1)c1ccc(NS(=O)(=O)c2ccc(Cl)c(Cl)c2)c(C(=O)O)c1` [Example 5, 2-((3,4-dichlorophenyl)sulfonyl-amino)-5-(3-carboxy-4-(((3,4-dichlorophenyl)sulfonyl)amino)-benzoyl)benzoic acid]: 98%.

With `CN(c1ccc(Cl)cc1)c1ccc(C(=O)c2ccc(Oc3cccc(Cl)c3)c(-c3nnn[nH]3)c2)cc1` [10:2, [4-(3-Chloro-phenoxy)-3-(1H-tetrazol-5-yl)-phenyl]-{4-[(4-chloro-phenyl)-methyl-amino]-phenyl}-methanone], the inhibition at 10 µM was determined as 84%. Same read-out and setting: in the case of `COc1cc(Cl)ccc1Oc1ccc(C(=O)c2ccc(N(C)c3ccc(Cl)cc3)cc2)cc1C(=O)O` [6:5, 2-(4-Chloro-2-methoxy-phenoxy)-5-{4-[(4-chloro-phenyl)-methyl-amino]-benzoyl}-benzoic acid] it was 98%; in that of `CN(c1ccc(Cl)cc1)c1ccc(C(=O)c2ccc(Oc3cccc(Cl)c3F)c(C(=O)O)c2)cc1` [6:6, 2-(3-Chloro-2-fluoro-phenoxy)-5-{4-[(4-chloro-phenyl)-methyl-amino]-benzoyl}benzoic acid], 83%. As to `O=C(Nc1ccc(C(=O)c2ccc(NC(=O)c3cccc(Cl)c3)c(C(=O)O)c2)cc1)c1cccc(Cl)c1` [7:1, 2-(3-Chloro-benzoylamino)-5-[4-(3-chloro-benzoylamino)-benzoyl]-benzoic acid], the inhibition at 10 µM worked out at 97%. On the same count and under the same terms, in the case of `CCCCc1ccc(C(=O)Nc2ccc(C(=O)c3ccc(NC(=O)c4ccc(CCCC)cc4)c(C(=O)O)c3)cc2C(=O)O)cc1` [Example 3, 2-(4-butylbenzamido)-5-(4-(4-butylbenzamido)-3-carboxy-phenylcarbonyl)benzoic acid] it was 98%. Still for that read-out and setting: in the case of `CN(c1ccc(Cl)cc1)c1ccc(C(=O)c2ccc(NC(=O)c3cccc(Cl)c3Cl)c(-c3nnn[nH]3)c2)cc1` [10:4, 2,3-Dichloro-N-[4-{4-[(4-chloro-phenyl)-methyl-amino]-benzoyl}-2-(1H-tetrazol-5-yl)-phenyl]-benzamide] it was 77%; in that of `O=C(Nc1ccc(C(=O)c2ccc(Oc3ccc(F)c(F)c3)c(C(=O)O)c2)cc1)c1cccc(Cl)c1` [8:4, 5-[4-(3-Chloro-benzoylamino)-benzoyl]-2-(3,4-difluoro-phenoxy)-benzoic acid], 88%. On to `O=C(c1ccc(NS(=O)(=O)c2ccc(Cl)cc2)cc1)c1ccc(NC(=O)c2cccc(Cl)c2Cl)c(C(=O)O)c1` [7:10, 5-[4-(4-Chloro-benzenesulfonylamino)-benzoyl]-2-(2,3-dichloro-benzoylamino)-benzoic acid], for which the inhibition at 10 µM worked out at 99%. The same measure, in the same setting: the same measure for `CN(c1ccc(Cl)cc1)c1ccc(C(=O)c2ccc(Oc3cccc4c3CCCC4)c(C(=O)O)c2)cc1` [6:10, 5-{4-[(4-Chloro-phenyl)-methyl-amino]-benzoyl}-2-(5,6,7,8-tetrahydro-naphthalen-1-yloxy)-benzoic acid]: 88%.

For the molecule `O=C(Nc1ccc(C(=O)c2ccc(NC(=O)c3cccc(F)c3F)c(C(=O)O)c2)cc1)c1cccc(Cl)c1` [7:4, 5-[4-(3-Chloro-benzoylamino)-benzoyl]-2-(2,3-difluoro-benzoylamino)-benzoic acid], the inhibition at 10 µM is 100%. On to `O=C(Nc1ccc(C(=O)c2ccc(NC(=O)c3cccc(Cl)c3O)c(C(=O)O)c2)cc1)c1cccc(Cl)c1` [7:7, 5-[4-(3-Chloro-benzoylamino)-benzoyl]-2-(3-chloro-2-hydroxy-benzoylamino)-benzoic acid], for which the inhibition at 10 µM is 82%. Still for that read-out and setting: the same measure for `CN(c1ccc(Cl)cc1)c1ccc(C(=O)c2ccc(Nc3ccc(C(F)(F)F)cc3)c(-c3nnn[nH]3)c2)cc1` [10:3, {4-[(4-Chloro-phenyl)-methyl-amino]-phenyl}-[3-(1H-tetrazol-5-yl)-4-(4-trifluoromethyl-phenylamino)-phenyl]-methanone]: 71%.
